Measurements published in ChEMBL document CHEMBL1201862, “PubChem BioAssay data set” (2004).
Active and inactive are the calls of the source.

Columns and labels:
Cytochrome P450 2C9 = Cytochrome P450 2C9 (Homo sapiens, UniProt P11712); conditions: Potency
[1] = molecular target: Glyceraldehyde-3-phosphate dehydrogenase (Homo sapiens, UniProt P04406)
[2] = molecular target: T1, Alkaline phosphatase, tissue-nonspecific isozyme (Homo sapiens, UniProt P05186); test: potency against alkaline phosphatase TNAP – biochemical, luminescent, dose response, SAR follow-up (AID 1056)
T1 sequence (P05186 whole entry): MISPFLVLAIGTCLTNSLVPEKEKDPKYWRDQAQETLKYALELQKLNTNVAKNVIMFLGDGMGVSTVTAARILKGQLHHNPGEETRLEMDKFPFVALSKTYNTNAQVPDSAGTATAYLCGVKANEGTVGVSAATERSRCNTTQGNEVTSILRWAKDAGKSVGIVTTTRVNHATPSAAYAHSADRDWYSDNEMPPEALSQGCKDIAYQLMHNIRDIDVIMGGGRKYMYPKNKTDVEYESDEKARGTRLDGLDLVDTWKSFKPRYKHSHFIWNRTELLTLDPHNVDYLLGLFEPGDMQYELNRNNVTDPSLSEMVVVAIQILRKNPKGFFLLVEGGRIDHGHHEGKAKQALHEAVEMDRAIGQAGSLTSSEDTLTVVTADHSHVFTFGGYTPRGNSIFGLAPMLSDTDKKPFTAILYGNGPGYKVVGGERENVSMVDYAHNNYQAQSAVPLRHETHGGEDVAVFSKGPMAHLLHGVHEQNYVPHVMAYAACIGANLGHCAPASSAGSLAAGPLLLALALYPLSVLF

[3] = molecular target: T2, Polyadenylate-binding protein 1 (Homo sapiens, UniProt P11940); test: MLLE domain peptide-binding blockers, IC50 – biochemical, fluorescence polarization, FITC-PAM2 peptide, dose response (AID 602259); format: functional; conditions: read-out: IC50_Mean
T2 sequence (P11940 whole entry, the tested form may be a part): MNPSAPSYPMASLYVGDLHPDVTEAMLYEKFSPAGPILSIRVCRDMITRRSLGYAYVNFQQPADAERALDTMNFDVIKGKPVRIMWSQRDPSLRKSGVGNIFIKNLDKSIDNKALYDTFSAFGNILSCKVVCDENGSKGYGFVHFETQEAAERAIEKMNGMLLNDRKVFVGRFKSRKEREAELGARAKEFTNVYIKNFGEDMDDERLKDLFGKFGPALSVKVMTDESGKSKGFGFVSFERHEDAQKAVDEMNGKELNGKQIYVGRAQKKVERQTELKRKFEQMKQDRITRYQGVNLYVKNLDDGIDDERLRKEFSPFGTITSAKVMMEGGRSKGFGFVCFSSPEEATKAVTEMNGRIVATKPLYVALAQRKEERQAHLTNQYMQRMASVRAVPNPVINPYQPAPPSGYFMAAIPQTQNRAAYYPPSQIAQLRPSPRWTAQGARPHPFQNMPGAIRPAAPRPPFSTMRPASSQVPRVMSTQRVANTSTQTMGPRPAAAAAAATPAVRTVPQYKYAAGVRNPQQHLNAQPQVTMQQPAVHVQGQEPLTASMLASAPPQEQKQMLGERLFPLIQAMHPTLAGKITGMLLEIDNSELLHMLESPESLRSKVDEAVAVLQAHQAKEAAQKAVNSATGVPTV

[4] = molecular target: T2, Polyadenylate-binding protein 1; test: MLLE binding blockers, Cy5 peptide tracer – biochemical, fluorescence polarization, Cy5-PAM2 peptide, secondary, miRNA deadenylation inhibitor project, dose response (AID 602260); format: functional; conditions: read-out: IC50_Mean
Beta-galactosidase = Beta-galactosidase (Escherichia coli, UniProt Q8VNN2); test: detection-enzyme interference by beta-gal modulators – biochemical, E. coli enzyme, set 3, artefact control for CCR6 antagonist project, dose response (AID 504712); format: functional
[5] = viability of uninfected HEp-2 cells – cell-based, HTS, cytotoxicity control for RSV inhibitor project, dose response (AID 2410); format: functional; conditions: human respiratory syncytial virus
Estrogen receptor = molecular target: T3, Estrogen receptor (Homo sapiens, UniProt P03372);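 further: potency for inhibiting coactivator peptide recruitment to the receptor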
T3 sequence (P03372 whole entry): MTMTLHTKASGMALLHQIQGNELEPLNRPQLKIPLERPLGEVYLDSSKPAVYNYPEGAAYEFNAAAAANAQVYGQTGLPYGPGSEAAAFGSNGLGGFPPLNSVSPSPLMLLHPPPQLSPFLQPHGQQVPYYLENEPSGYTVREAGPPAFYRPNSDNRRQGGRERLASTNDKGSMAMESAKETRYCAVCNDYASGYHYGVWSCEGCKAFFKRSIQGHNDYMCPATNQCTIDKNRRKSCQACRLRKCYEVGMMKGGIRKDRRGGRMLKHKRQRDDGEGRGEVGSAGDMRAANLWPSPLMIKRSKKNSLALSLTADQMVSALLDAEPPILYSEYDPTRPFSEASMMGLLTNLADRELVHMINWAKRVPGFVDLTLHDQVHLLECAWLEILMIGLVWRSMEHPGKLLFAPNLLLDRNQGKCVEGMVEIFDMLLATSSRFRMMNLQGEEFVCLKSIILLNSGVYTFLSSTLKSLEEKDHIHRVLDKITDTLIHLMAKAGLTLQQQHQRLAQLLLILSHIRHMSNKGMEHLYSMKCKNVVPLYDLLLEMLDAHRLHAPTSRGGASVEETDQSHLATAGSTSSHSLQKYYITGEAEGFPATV

[6] = viability of PTEN-deleted HCT116 cells – cell-based, HCT116 PTEN knockout, dose response (AID 1047); format: functional;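 further: HCT116 colon tumor cells with PTEN knocked out; cells exposed to compound for 60 hours before readout; potency for loss of cell viability measured by luminescence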
[7] = molecular target: T4, Ubiquitin-conjugating enzyme E2 N (Homo sapiens, UniProt P61088); format: functional
T4 sequence (P61088 whole entry): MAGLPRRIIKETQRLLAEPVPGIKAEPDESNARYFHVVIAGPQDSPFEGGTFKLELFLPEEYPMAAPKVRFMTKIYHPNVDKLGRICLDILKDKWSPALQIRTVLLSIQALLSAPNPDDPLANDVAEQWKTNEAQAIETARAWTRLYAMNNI

[8] = NIH3T3 cell viability loss – ATP luminescence, mouse fibroblasts, counter-screen, dose response (AID 2010); format: functional, cell-based;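 further: cells exposed to compound for about 90 hours before reading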
[9] = molecular target: T5, Short transient receptor potential channel 4 (Mus musculus, UniProt Q9QUQ5); test: calcium entry via TRPC4 opening agents – cell-based, HEK293 TRPC4/mu-opioid, Fluo-4 calcium, dose response (AID 434937); format: functional
T5 sequence (Q9QUQ5 whole entry): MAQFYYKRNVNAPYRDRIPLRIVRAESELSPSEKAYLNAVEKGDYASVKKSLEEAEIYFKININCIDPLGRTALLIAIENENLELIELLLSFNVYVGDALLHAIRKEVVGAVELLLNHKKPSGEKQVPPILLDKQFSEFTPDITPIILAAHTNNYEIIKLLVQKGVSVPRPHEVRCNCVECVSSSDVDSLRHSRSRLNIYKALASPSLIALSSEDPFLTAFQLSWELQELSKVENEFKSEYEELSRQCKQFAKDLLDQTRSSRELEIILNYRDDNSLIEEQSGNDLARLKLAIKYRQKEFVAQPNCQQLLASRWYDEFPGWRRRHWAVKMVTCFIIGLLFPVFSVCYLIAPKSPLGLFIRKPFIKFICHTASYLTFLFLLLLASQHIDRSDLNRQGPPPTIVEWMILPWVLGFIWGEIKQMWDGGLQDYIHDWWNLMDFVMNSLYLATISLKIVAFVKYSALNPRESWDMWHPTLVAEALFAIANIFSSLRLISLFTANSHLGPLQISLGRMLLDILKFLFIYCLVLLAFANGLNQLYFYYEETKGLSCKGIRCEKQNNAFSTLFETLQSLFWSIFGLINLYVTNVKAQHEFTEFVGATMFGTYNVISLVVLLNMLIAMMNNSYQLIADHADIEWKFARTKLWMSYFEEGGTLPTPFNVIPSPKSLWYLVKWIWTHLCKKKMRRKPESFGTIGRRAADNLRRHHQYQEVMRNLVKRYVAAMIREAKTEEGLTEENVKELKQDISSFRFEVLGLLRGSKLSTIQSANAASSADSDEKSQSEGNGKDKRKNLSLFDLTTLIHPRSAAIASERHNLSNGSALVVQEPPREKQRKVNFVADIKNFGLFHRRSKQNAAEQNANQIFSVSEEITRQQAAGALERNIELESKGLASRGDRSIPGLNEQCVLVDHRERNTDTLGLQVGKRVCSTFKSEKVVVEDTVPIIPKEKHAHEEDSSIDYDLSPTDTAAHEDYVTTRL

[10] = viability of HCT116 lacking mutant beta-catenin – cell-based, human colon tumor, dose response (AID 1045); format: functional;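 further: HCT116 colon tumor cells with beta catenin knocked out; cells exposed to compound for 60 hours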
Bcl-2-related protein A1 = molecular target: T6, Bcl-2-related protein A1 (Mus musculus, UniProt Q07440); format: functional;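 further: confirmatory dose–response counterscreen on Bfl-1, used to check hits from a UBC13 polyubiquitin inhibitor campaign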
T6 sequence (Q07440 whole entry): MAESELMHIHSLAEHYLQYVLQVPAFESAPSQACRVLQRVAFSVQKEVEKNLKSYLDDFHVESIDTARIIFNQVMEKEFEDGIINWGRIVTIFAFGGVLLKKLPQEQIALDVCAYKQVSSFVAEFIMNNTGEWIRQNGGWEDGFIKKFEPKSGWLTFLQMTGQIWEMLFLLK

[11] = molecular target: T4, Ubiquitin-conjugating enzyme E2 N; format: functional; remark: listed apart in the source
[12] = Trypanosoma cruzi growth suppression in host cells – NIH3T3 host cells, beta-gal luminescence, confirmation (AID 2044); format: functional, cell-based;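 further: intracellular parasites grown in NIH/3T3 mouse fibroblasts as host cells; luminescent beta-galactosidase reporter signal from transgenic T. cruzi replicating inside host cells; inhibitors lower the luminescence signal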
[13] = molecular target: T7, Voltage-gated N-type calcium channel alpha-1B subunit/Amyloid beta A4 precursor protein-binding family A member 1 (Homo sapiens, UniProt Q00975+Q02410); format: protein assay
T7 sequence (Q00975 whole entry): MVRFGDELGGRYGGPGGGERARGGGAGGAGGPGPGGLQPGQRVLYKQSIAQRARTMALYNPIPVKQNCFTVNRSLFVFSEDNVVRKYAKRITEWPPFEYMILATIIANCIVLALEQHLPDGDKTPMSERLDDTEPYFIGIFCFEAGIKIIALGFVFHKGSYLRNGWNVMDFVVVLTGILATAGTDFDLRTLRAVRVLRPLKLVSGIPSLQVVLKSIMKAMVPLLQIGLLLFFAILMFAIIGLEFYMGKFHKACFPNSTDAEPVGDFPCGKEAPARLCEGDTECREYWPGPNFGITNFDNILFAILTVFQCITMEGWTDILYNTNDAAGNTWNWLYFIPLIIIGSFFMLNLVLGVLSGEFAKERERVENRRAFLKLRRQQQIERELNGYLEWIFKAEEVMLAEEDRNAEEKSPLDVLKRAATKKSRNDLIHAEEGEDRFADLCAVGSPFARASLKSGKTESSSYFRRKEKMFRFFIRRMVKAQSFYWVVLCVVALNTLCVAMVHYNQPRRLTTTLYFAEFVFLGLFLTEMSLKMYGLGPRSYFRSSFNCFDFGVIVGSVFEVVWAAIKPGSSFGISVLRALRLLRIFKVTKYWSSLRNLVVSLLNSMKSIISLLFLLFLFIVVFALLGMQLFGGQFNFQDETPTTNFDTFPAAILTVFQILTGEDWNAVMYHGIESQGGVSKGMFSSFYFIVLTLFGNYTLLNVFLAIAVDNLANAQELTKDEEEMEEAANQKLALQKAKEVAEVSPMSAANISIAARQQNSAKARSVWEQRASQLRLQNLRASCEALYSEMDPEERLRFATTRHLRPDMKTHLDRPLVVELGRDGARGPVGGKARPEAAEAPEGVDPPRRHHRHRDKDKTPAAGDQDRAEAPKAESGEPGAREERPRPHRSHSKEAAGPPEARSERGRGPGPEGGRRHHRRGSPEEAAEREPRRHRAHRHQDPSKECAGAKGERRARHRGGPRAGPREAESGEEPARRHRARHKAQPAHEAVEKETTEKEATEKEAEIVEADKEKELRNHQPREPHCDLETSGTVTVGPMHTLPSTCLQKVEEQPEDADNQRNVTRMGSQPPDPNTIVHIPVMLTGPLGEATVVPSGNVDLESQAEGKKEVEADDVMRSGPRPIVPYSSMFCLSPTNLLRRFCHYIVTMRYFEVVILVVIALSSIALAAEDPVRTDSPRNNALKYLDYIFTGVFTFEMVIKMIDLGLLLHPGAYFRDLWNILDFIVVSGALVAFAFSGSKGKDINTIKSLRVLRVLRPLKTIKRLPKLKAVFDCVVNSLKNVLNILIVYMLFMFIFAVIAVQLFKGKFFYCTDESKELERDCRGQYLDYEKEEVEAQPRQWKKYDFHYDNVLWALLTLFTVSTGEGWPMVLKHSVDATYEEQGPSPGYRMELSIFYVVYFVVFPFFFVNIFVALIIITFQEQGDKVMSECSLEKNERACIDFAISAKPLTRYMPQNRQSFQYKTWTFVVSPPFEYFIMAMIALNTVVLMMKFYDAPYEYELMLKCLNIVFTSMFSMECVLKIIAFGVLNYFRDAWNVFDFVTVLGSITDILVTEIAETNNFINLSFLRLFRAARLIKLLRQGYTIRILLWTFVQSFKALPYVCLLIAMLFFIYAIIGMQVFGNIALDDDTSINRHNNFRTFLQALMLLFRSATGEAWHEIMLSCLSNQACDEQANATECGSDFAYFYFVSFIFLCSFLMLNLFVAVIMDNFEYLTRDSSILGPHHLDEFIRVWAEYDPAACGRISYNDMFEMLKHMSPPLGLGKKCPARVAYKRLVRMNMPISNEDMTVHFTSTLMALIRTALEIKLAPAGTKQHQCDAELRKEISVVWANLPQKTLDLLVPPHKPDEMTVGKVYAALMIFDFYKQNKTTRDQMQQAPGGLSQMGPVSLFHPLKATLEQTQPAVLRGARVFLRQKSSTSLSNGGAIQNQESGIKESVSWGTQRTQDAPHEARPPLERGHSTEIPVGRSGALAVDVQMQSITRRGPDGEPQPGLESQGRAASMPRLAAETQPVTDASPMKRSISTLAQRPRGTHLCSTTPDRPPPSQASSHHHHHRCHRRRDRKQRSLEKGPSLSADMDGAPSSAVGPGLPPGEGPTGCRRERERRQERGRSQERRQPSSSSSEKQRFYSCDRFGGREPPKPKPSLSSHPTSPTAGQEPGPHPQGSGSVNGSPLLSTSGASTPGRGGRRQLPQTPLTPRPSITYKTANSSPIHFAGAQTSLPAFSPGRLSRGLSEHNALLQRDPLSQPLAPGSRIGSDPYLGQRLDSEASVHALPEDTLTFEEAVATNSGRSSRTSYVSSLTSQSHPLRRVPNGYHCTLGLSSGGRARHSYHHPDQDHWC
T7 sequence (Q02410 whole entry): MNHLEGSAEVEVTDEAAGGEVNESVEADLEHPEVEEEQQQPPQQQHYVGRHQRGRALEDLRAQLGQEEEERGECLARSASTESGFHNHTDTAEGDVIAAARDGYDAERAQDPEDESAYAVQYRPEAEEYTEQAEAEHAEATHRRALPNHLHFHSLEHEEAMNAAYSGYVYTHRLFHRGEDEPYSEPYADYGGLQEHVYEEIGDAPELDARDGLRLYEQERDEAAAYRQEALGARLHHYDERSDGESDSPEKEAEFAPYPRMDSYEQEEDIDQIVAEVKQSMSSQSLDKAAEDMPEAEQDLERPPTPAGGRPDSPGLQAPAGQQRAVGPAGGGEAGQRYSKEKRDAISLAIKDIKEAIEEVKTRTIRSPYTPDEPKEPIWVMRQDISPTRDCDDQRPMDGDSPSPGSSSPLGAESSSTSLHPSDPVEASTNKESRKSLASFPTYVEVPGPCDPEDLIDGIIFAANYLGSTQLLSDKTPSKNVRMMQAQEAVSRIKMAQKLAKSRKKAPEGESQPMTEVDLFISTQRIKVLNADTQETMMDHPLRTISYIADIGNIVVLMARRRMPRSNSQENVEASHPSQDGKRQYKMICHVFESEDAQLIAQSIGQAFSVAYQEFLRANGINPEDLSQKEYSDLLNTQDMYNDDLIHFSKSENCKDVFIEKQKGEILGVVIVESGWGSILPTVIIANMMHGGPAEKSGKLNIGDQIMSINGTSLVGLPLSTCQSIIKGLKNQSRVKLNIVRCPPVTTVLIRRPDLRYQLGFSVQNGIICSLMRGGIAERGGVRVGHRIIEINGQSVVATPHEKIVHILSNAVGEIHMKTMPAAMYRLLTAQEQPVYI

[14] = molecular target: T7, Voltage-gated N-type calcium channel alpha-1B subunit/Amyloid beta A4 precursor protein-binding family A member 1; format: protein assay; remark: listed apart in the source

Glyceraldehyde-3-phosphate dehydrogenase, sequence (P04406 whole entry): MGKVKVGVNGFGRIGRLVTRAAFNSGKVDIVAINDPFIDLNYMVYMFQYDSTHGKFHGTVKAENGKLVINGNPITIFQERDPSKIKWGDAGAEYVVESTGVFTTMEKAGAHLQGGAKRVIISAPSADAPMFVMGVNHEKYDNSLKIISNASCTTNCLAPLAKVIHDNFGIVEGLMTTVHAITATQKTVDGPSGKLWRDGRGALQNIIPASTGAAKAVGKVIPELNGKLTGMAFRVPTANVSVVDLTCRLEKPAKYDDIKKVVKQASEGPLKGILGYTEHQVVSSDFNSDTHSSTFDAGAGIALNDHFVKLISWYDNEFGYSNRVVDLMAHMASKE
Cytochrome P450 2C9, sequence (P11712 whole entry): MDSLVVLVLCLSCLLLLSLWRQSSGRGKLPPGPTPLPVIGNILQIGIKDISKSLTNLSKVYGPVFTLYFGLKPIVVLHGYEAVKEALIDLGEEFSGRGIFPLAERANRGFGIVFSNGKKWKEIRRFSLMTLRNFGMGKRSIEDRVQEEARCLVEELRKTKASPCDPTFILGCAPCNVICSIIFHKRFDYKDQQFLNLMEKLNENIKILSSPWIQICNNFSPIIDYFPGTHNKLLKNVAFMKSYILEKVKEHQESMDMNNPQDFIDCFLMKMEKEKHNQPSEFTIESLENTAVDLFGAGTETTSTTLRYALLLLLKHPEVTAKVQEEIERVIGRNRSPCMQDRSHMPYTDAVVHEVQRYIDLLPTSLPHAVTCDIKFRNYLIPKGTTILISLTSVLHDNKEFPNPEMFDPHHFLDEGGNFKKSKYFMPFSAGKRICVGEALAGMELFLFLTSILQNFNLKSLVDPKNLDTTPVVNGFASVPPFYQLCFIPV

With `COc1ccc(/C=C/C2=CC3(C)CC2(C)C(c2ccc(OC)cc2)CC3=O)cc1` (centres undefined) the AC50 (Cytochrome P450 2C9) was 7.94 µM (inconclusive).
In the case of `O=C1C2CCCCC2C(=O)N1c1nc(CCc2ccccc2)n[nH]1` (centres undefined), the IC50 [1] is reported as > 100 µM (not active) and the IC50 [2] is reported as > 100 µM (inactive).
For `CCCCn1c(N)c(C(=S)NC(=O)CC(C)(C)C)c(=O)n(C)c1=O`, the IC50 [3] was > 66 µM (inactive), the IC50 [4] was > 66 µM (inactive) and the IC50 (Beta-galactosidase) was > 66.6 µM (inactive).
In the case of `O=S(=O)(c1ccccc1F)N1CCC(c2nc(O)c3nnn(Cc4ccc5c(c4)OCCO5)c3n2)CC1`, the IC50 (cells) is reported as 45.3 µM (active) and the CC50 [5] is reported as > 50 µM (active).
With `Cc1ccccc1Nc1nc(N)nc(CSc2nc3ccccc3c(=O)n2C)n1` the IC50 (Estrogen receptor) was > 50 µM (not active).
With `COc1ccc(-c2cc(C#N)nc(N3CCNCC3)n2)cc1` the EC50 [6] was 15.2 µM (active), the IC50 [7] was 15.9 µM (active) and the EC50 [8] was > 60 µM (not active). The EC50 [9] was 1.88 µM (active), the EC50 [10] was 9.93 µM (active) and the IC50 (Bcl-2-related protein A1) was > 20 µM (inactive). For the same compound, the IC50 [11] was 15.5 µM (active) and the EC50 [12] was 3.69 µM (active).
For `CC(C)CC(C(=O)NC(C)(C)C)N(Cc1ccccc1Cl)C(=O)c1snc(C(N)=O)c1N` (centres undefined), the IC50 [7] was 12.5 µM (active), the IC50 (Bcl-2-related protein A1) was > 20 µM (inactive) and the IC50 [11] was 14.5 µM (active).
In the case of `CCOC(=O)N1CCN(C(=O)CCN2C(=O)/C(=C\c3cccc(OC)c3)SC2=S)CC1`, the IC50 [13] is reported as 28.4 µM (active) and the IC50 [14] is reported as > 50 µM (inactive).
For `CSc1ccc(S(=O)(=O)Nc2cccc(F)c2)cc1`, the IC50 (Estrogen receptor) was 23.7 µM (active).
With `NNC(=O)c1cc(-c2ccc(F)cc2F)[nH]n1` the IC50 [1] was > 10 µM (inconclusive) and the IC50 [2] was 0.12 µM (active).
In the case of `N#C/C(=C\c1ccc(OCCN2CCOCC2)cc1)C(=O)Nc1ccc(S(N)(=O)=O)cc1`, the IC50 [13] is reported as 7.74 µM (active) and the IC50 [14] is reported as > 50 µM (inactive).
For `Cc1ccc(-c2nc3cccnc3s2)cc1NS(=O)(=O)c1cccs1`, the IC50 (cells) was 8.63 µM (active) and the CC50 [5] was 20.4 µM (active).
